Measured values from patent publication US12351580B2, “NLRP3 modulators” (Innate Tumor Immunity, Inc., priority 2017, dated 2025).

target: T1, TLR8 (Homo sapiens, UniProt Q9NR97); assay: In vitro human TLR8 binding reporter assay (HEK-Blue, NF-kB/AP1-inducible SEAP); format: cell-based; settings: activity range symbols
T1 construct: host or cells: HEK-Blue cells (human HEK) co-expressing TLR8 and an NF-kB/AP1-inducible SEAP reporter
T1 sequence (Q9NR97 27-1041): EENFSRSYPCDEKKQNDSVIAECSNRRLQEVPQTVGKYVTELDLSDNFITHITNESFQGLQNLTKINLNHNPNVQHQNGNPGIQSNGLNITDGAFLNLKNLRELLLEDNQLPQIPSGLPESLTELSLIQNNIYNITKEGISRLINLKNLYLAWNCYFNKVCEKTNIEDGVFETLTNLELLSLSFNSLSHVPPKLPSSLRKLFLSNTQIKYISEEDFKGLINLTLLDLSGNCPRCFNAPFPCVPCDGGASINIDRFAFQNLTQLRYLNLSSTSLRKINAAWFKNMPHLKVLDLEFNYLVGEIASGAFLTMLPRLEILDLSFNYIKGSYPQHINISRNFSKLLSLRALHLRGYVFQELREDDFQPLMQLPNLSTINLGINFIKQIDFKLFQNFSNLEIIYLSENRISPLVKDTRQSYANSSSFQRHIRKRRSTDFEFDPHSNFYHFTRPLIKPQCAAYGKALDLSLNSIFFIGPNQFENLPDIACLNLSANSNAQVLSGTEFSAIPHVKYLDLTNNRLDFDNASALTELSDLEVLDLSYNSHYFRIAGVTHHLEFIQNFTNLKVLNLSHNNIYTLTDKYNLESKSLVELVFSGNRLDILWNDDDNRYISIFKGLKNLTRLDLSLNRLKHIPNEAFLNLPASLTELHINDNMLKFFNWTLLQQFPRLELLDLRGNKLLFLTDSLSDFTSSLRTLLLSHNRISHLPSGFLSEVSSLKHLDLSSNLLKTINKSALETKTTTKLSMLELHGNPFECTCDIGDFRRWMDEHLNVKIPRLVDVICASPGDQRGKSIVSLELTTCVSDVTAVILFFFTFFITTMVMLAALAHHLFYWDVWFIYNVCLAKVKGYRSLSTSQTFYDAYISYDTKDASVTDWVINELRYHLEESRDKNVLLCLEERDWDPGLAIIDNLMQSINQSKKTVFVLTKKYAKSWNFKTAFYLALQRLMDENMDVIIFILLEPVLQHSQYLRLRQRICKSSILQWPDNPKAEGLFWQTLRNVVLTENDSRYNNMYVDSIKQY
Protocol: In Vitro Human TLR7 and TLR8 Binding Reporter Assays
Logarithmically-growing human HEK-Blue cells co-expressing a TLR7 or TLR8 gene and a NF-kB/AP1-inducible SEAP (secreted embryonic alkaline phosphatase; Invivogen, San Diego, CA) reporter gene are added to individual wells of a 384-well plate (15,000 cells per 20 μL per well) and maintained for 24 h at 37° C., 5% CO2. Test compounds or DMSO are distributed to separate wells the next day using acoustic liquid handling technology (100 nL per well) and cells are subsequently incubated for 18 h at 37° C., 5% CO2. Cellular SEAP production is measured using an Envision plate reader instrument thirty minutes after adding freshly-made Quanti-Blue reagent (prepared by following manufacturer instructions; Invivogen, San Diego, CA) to the HEK-Blue TLR Nf-kB-SEAP cell reactions. All EC50 values (half-maximal effective concentration) are determined using proprietary data analysis software.

Row | Compound | EC50 [µM]
1 | CCN(Cc1nc2c(N)nc3cc(C4CC4)ccc3c2n1Cc1ccc(OC)cc1)C(C)=O [Compound 190] | > 100
2 | COc1cccc(-c2ccc3c(c2)nc(N)c2nc(CN4CCCC4=O)[nH]c23)c1 [Compound 287, 1-[[4-amino-7-(3-methoxyphenyl)-1H-imidazo[4,5-c]quinolin-2-yl]methyl]pyrrolidin-2-one] | > 100
3 | CCN(Cc1nc2c(N)nc3cc(C(F)(F)F)ccc3c2n1CCCC(=O)OC)C(C)=O [Compound 229] | > 100
4 | CCN(Cc1nc2c(N)nc3cc(C4=CCCC4)ccc3c2[nH]1)C(C)=O [Compound 183] | > 100
5 | CCOC(=O)c1cc2c(cc1Br)nc(N)c1nc(CN(CC)C(C)=O)[nH]c12 [Compound 198] | > 100
6 | CCN(Cc1nc2c(N)nc3ccc(Br)cc3c2[nH]1)S(C)(=O)=O [Compound 201] | > 100
7 | CCN(Cc1nc2c(N)nc3cc(Cl)ccc3c2n1CCCC(=O)N1CCCC1)C(C)=O [Compound 222] | > 100
8 | CCN(Cc1nc2c(N)nc3ccc(Br)cc3c2[nH]1)C(C)=O [Compound 194] | > 100
9 | CCN(Cc1nc2c(N)nc3ccccc3c2n1CCCC(=O)OC)C(C)=O [Compound 164] | > 100
10 | CCN(Cc1nc2c(N)nc3ccccc3c2n1CCC(=O)N1CCS(=O)(=O)CC1)C(=O)OC(C)(C)C [Compound 223] | > 100
11 | CN(C)C(=O)CCCn1c(CN2CCCC2=O)nc2c(N)nc3cc(Br)ccc3c21 [Compound 215] | > 100
12 | Nc1nc2cc(C3CCOCC3)ccc2c2[nH]c(CN3CCCC3=O)nc12 [Compound 298, 1-[[4-amino-7-(oxan-4-yl)-1H-imidazo[4,5-c]quinolin-2-yl]methyl]pyrrolidin-2-one] | > 100
13 | Nc1nc2cc(-n3cccn3)ccc2c2[nH]c(CN3CCCC3=O)nc12 [Compound 295, 1-[(4-amino-7-pyrazol-1-yl-1H-imidazo[4,5-c]quinolin-2-yl)methyl]pyrrolidin-2-one] | > 100
14 | CCc1ccc2c(c1)nc(N)c1nc(CN(CC)C(C)=O)[nH]c12 [Compound 171, N-[(4-amino-7-ethyl-1H-imidazo[4,5-c]quinolin-2-yl)methyl]-N-ethylacetamide] | > 100
15 | CC(c1nc2c(N)nc3cc(Br)ccc3c2[nH]1)N1CCCC1=O (stereo not shown) [Compound 303, 1-[1-(4-amino-7-bromo-1H-imidazo[4,5-c]quinolin-2-yl)ethyl]pyrrolidin-2-one] | 20 to 100
16 | CCN(Cc1nc2c(N)nc3ccccc3c2n1CCC(=O)N1CCN(C(=O)OC(C)(C)C)CC1)C(C)=O [Compound 212] | > 100
17 | CCN(Cc1nc2c(N)nc3ccccc3c2n1CCC(=O)N1CCOCC1)C(=O)OC(C)(C)C [Compound 205] | > 100
18 | Nc1nc2ccccc2c2[nH]c(CN3CCCC3=O)nc12 [Compound 278] | > 100
19 | COc1ccc(-c2ccc3c(c2)nc(N)c2nc(CN4CCCC4=O)[nH]c23)cc1 [Compound 230] | > 100
20 | CCN(Cc1nc2c(N)nc3cc(C)ccc3c2[nH]1)C(C)=O [Compound 104] | > 100
21 | CCN(Cc1nc2c(N)nc3cc(-n4cccn4)ccc3c2[nH]1)S(C)(=O)=O [Compound 108, N-((4-Amino-7-(1H-pyrazol-1-yl)-1H-imidazo[4,5-c]quinolin-2-yl)methyl)-N-ethylmethanesulfonamide] | > 100
22 | CCN(Cc1nc2c(N)nc3cc(-c4ccncc4)ccc3c2[nH]1)C(C)=O [Compound 167, N-[(4-amino-7-pyridin-4-yl-1H-imidazo[4,5-c]quinolin-2-yl)methyl]-N-ethylacetamide] | > 100

Row | Compound | EC50 [µM]
23 | CCN(Cc1nc2c(N)nc3cc(Cl)ccc3c2[nH]1)C(C)=O [Compound 179, N-[(4-amino-7-chloro-1H-imidazo[4,5-c]quinolin-2-yl)methyl]-N-ethylacetamide] | > 100
24 | CCN(Cc1nc2c(N)nc3ccc(Cl)cc3c2[nH]1)C(C)=O [Compound 197] | > 100
25 | Cc1ccc(-c2ccc3c(c2)nc(N)c2nc(CN4CCCC4=O)[nH]c23)cc1 [Compound 291, 1-[[4-amino-7-(4-methylphenyl)-1H-imidazo[4,5-c]quinolin-2-yl]methyl]pyrrolidin-2-one] | > 100
26 | CCN(Cc1nc2c(N)nc3ccc(Br)cc3c2[nH]1)S(=O)(=O)c1ccc(C)cc1 [Compound 202] | > 100
27 | CCN(Cc1nc2c(N)nc3cc(Cl)ccc3c2n1CCCC(=O)OC)C(C)=O [Compound 219] | > 100
28 | Nc1nc2cc(Br)ccc2c2[nH]c(CN3CCCC3=O)nc12 [Compound 294, 1-[(4-amino-7-bromo-1H-imidazo[4,5-c]quinolin-2-yl)methyl]pyrrolidin-2-one] | > 100
29 | CCN(Cc1nc2c(N)nc3cc(Br)ccc3c2n1CCCC(=O)N(C)C)C(C)=O [Compound 213] | > 100
30 | Cc1ccccc1-c1ccc2c(c1)nc(N)c1nc(CN3CCCC3=O)[nH]c12 [Compound 282, 1-[[4-amino-7-(2-methylphenyl)-1H-imidazo[4,5-c]quinolin-2-yl]methyl]pyrrolidin-2-one] | > 100
31 | CCN(Cc1nc2c(N)nc3cc(Br)ccc3c2n1CCCC(=O)OC)C(C)=O [Compound 218] | > 100
32 | CCNCc1nc2c(N)nc3cc(-c4cc[nH]n4)ccc3c2n1C [Compound 106, 2-((Ethylamino)methyl)-1-methyl-7-(1H-pyrazol-3-yl)-1H-imidazo[4,5-c]quinolin-4-amine] | > 100
33 | Nc1nc2cc(-c3ccccc3Cl)ccc2c2[nH]c(CN3CCCC3=O)nc12 [Compound 281, 1-[[4-amino-7-(2-chlorophenyl)-1H-imidazo[4,5-c]quinolin-2-yl]methyl]pyrrolidin-2-one] | > 100
34 | N#Cc1cccc(-c2ccc3c(c2)nc(N)c2nc(CN4CCCC4=O)[nH]c23)c1 [Compound 288, 3-[4-amino-2-[(2-oxopyrrolidin-l-yl)methyl]-1H-imidazo[4,5-c]quinolin-7-yl]benzonitrile] | > 100
35 | CCN(Cc1nc2c(N)nc3cc(Br)ccc3c2n1CCCC(=O)N1CCOCC1)C(C)=O [Compound 214] | > 100
36 | CCCn1cc(-c2ccc3c(c2)nc(N)c2nc(CN(CC)C(C)=O)[nH]c23)cn1 [Compound 169, N-[[4-amino-7-(1-propylpyrazol-4-yl)-1H-imidazo[4,5-c]quinolin-2-yl]methyl]-N-ethylacetamide] | > 100
37 | CCN(Cc1nc2c(N)nc3ccccc3c2[nH]1)C(C)=O [Compound 176] | > 100
38 | CCN(Cc1nc2c(N)nc3cc(Br)ccc3c2n1CCCC(=O)NC)C(C)=O [Compound 210] | > 100
39 | Cc1cnn(-c2ccc3c(c2)nc(N)c2nc(CN4CCCC4=O)[nH]c23)c1 [Compound 296, 1-[[4-amino-7-(4-methylpyrazol-1-yl)-1H-imidazo[4,5-c]quinolin-2-yl]methyl]pyrrolidin-2-one] | > 100
40 | CCN(Cc1nc2c(N)nc3cc(N4CCNC4=O)ccc3c2n1Cc1ccc(OC)cc1)C(C)=O [Compound 196] | > 100
41 | CCN(Cc1nc2c(N)nc3ccc(Br)cc3c2[nH]1)C(=O)C(C)C [Compound 203] | > 100
42 | CCN(Cc1nc2c(N)nc3ccccc3c2n1CCC(=O)N1CCN(C(=O)OC(C)(C)C)CC1)C(=O)OC(C)(C)C [Compound 211] | > 100
43 | Nc1nc2cc(-c3cccnc3)ccc2c2[nH]c(CN3CCCC3=O)nc12 [Compound 279, 1-[(4-amino-7-pyridin-3-yl-1H-imidazo[4,5-c]quinolin-2-yl)methyl]pyrrolidin-2-one] | > 100
